{"source": "patent EP0555116B1", "about": "“Compositions based on antiseptics and their applications” (HUTCHINSON, priority 1992, dated 1993)", "system": "virus HIV1", "test": "Infectivity of HIV1 for normal human T lymphocytes after 10 min treatment of the virus; reverse transcriptase activity (ATI) in culture supernatants", "format": "cell-based", "settings": "for action virucide: produit utilisé seul, 0,002", "protocol": "Pour l'étude du pouvoir infectieux résiduel après traitement des préparations virales, le milieu de culture des lymphocytes T humains normaux (milieu complet) correspond au milieu ci-dessus auquel sont ajoutés 10 % d'interleukine II, du polybrène (2 µg/ml) et du sérum anti-interféron humain 1/2500 (M.A. REY et al., Biochem. Biophys. Res. Com., 1984, 121, 126-133).\nL'infectivité est étudiée sur des lymphocytes T obtenus à partir du sang périphérique d'un donneur humain sain, et séparés sur un gradient de Ficoll.\nLes lymphocytes sont stimulés pendant 3 jours par de la phytohémagglutinine P (PHA-P), diluée au 1/500 et cultivés dans du milieu complet. Les cellules T blastiques sont infectées par le virus, traité ou non, pour mettre en évidence le pouvoir infectieux résiduel.\nLe virus est obtenu à partir d'un surnageant de culture de la lignée CEM infectée par HIV1. Cette lignée T lymphoblastoïde infectée par HIV1 est utilisée pour la production virale.\nLe titre des surnageants utilisés est évalué après dosage de l'activité transcriptase inverse (ATI) du virus.\nDans les essais qui suivent, on a utilisé un surnageant dont l'ATI est de 1,8.10^6 cpm/ml. 2. Méthodes :\n• Préparation de la solution virale : plusieurs tubes contenant 1 ml de surnageant viral, ATI 1,8.10^6 cmp/ml sont concentrés par ultracentrifugation. Les culots de virus ainsi obtenus sont repris soit par chacune des dilutions de produit réalisées dans de l'eau bidistillée stérile, soit par de l'eau (virus témoin non traité). • Traitement des préparations virales : les préparations virales concentrées sont toutes traitées selon le protocole indiqué ci-dessous : • . échantillons viraux traités : les culots de virus concentrés par ultracentrifugation sont resuspendus dans 100 µl de chacune des concentrations en produits étudiés et incubés pendant 10 minutes. • . échantillon viral témoin : témoin virus non traité : le produit est remplacé par 100 µl d'eau bidistillée stérile. A la suite de ce temps d'incubation de 10 minutes, le virus présent dans chaque échantillon est rincé puis reconcentré par addition de 12 ml de milieu RPMI 1640 et ultracentrifugation. Les culots de virus sont alors repris dans 1 ml de milieu complet et utilisés pour l'infection de lymphocytes T humains normaux. • Mesure de l'infectivité des échantillons : 4.10^6 lymphocytes T humains normaux sont infectés avec chacune des préparations virales traitées ou témoins indiquées ci-dessus. L'infection des cellules T est réalisée selon une méthode précédemment décrite (F. BARRE-SINOUSSI et al., Science, 1983, 220, 868-871) : en résumé 4.10^6 cellules en suspension dans 1 ml de milieu complet sont incubées avec 1 ml de chacune des préparations virales traitées ou témoins pendant 1 heure à 37°C. Après 2 lavages par plusieurs ml de milieu de culture, les suspensions cellulaires sont ajustées à la concentration de 1.10^6 cellules par ml. Le jour de l'infection est considéré comme jour 0. • . Cellules témoin : 4.10^6 lymphocytes T sont cultivés et passés tous les 3 ou 4 jours dans les mêmes conditions que tous les autres échantillons. Ce témoin correspond au témoin négatif de la production virale au cours de la manipulation. La production virale au cours du temps est déterminée en mesurant l'activité transcriptase inverse présente dans les surnageants de culture selon le protocole décrit ci-dessous. • . Mesure de l'activité transcriptase inverse des préparations virales témoins et des échantillons viraux traités par les produits : ce dosage permet d'évaluer la présence de virus résiduel non inactivé dans l'échantillon de départ. Il est réalisé à partir de 1 ml de surnageant de culture, prélevé tous les 3 ou 4 jours et ultracentrifugé.\nLes activités enzymatiques sont mesurées dans 50 µl d'un mélange réactionnel contenant 50 mM Tris pH 7,8, 20 mM MgCl2, 20 mM KCl, 2 mM dithiotréitol, 0,25 OD/ml oligo dT, 0,25 OD/ml poly rA, 0,1 % Triton X 100 et 2,5 µCi 3H DTTP. […]", "data": [{"smiles": "[H]/N=C(\\N/C(=N/[H])NCCCCCCNC(=N)NC(=N)Nc1ccc(Cl)cc1)Nc1ccc(Cl)cc1", "note": "[Chlorhexidine, digluconate de chlorhexidine, reference compound]", "values": [{"measurement": "ATI dans les surnageants", "setting": "Chlorhexidine 0,01 %, J3", "result": 262, "unit": "cpm/ml"}, {"measurement": "ATI dans les surnageants", "setting": "Chlorhexidine 0,01 %, J6", "result": 274, "unit": "cpm/ml"}, {"measurement": "ATI dans les surnageants", "setting": "Chlorhexidine 0,01 %, J10", "result": 200, "unit": "cpm/ml"}, {"measurement": "ATI dans les surnageants", "setting": "Chlorhexidine 0,01 %, J13", "result": 250, "unit": "cpm/ml"}, {"measurement": "ATI dans les surnageants", "setting": "Chlorhexidine 0,01 %, J17", "result": 230, "unit": "cpm/ml"}, {"measurement": "ATI dans les surnageants", "setting": "Chlorhexidine 0,01 %, J20", "result": 272, "unit": "cpm/ml"}, {"measurement": "ATI dans les surnageants", "setting": "Chlorhexidine 0,01 %, J23", "result": 456, "unit": "cpm/ml"}, {"measurement": "ATI dans les surnageants", "setting": "Chlorhexidine 0,01 %, J27", "result": 420, "unit": "cpm/ml"}, {"measurement": "ATI dans les surnageants", "setting": "Chlorhexidine 0,01 %, J30", "result": 276, "unit": "cpm/ml"}, {"measurement": "ATI dans les surnageants", "setting": "Chlorhexidine 0,002 %, J3", "result": 252, "unit": "cpm/ml"}, {"measurement": "ATI dans les surnageants", "setting": "Chlorhexidine 0,002 %, J6", "result": 352, "unit": "cpm/ml"}, {"measurement": "ATI dans les surnageants", "setting": "Chlorhexidine 0,002 %, J10", "result": 1304, "unit": "cpm/ml"}, {"measurement": "ATI dans les surnageants", "setting": "Chlorhexidine 0,002 %, J13", "result": 1752, "unit": "cpm/ml"}, {"measurement": "ATI dans les surnageants", "setting": "Chlorhexidine 0,002 %, J17", "result": 4288, "unit": "cpm/ml"}, {"measurement": "ATI dans les surnageants", "setting": "Chlorhexidine 0,002 %, J20", "result": 6138, "unit": "cpm/ml"}, {"measurement": "ATI dans les surnageants", "setting": "Chlorhexidine 0,002 %, J23", "result": 4614, "unit": "cpm/ml"}, {"measurement": "ATI dans les surnageants", "setting": "Chlorhexidine 0,002 %, J27", "result": 1616, "unit": "cpm/ml"}, {"measurement": "ATI dans les surnageants", "setting": "Chlorhexidine 0,002 %, J30", "result": 4528, "unit": "cpm/ml"}, {"measurement": "ATI dans les surnageants", "setting": "Chlorhexidine 0,005 %, J3", "result": 360, "unit": "cpm/ml"}, {"measurement": "ATI dans les surnageants", "setting": "Chlorhexidine 0,005 %, J6", "result": 374, "unit": "cpm/ml"}, {"measurement": "ATI dans les surnageants", "setting": "Chlorhexidine 0,005 %, J10", "result": 580, "unit": "cpm/ml"}, {"measurement": "ATI dans les surnageants", "setting": "Chlorhexidine 0,005 %, J13", "result": 742, "unit": "cpm/ml"}, {"measurement": "ATI dans les surnageants", "setting": "Chlorhexidine 0,005 %, J17", "result": 1902, "unit": "cpm/ml"}, {"measurement": "ATI dans les surnageants", "setting": "Chlorhexidine 0,005 %, J20", "result": 1126, "unit": "cpm/ml"}, {"measurement": "ATI dans les surnageants", "setting": "Chlorhexidine 0,005 %, J23", "result": 1226, "unit": "cpm/ml"}, {"measurement": "ATI dans les surnageants", "setting": "Chlorhexidine 0,005 %, J27", "result": 528, "unit": "cpm/ml"}, {"measurement": "ATI dans les surnageants", "setting": "Chlorhexidine 0,005 %, J30", "result": 720, "unit": "cpm/ml"}, {"measurement": "action virucide", "result": "ne sont pas virucides"}]}, {"smiles": "CCCCCCCCCC[N+](C)(C)CCCCCCCCCC", "note": "[Bardac®, chlorure de didécyldiméthylammonium]", "values": [{"measurement": "ATI dans les surnageants", "setting": "Bardac® 0,01 %, J3", "result": 334, "unit": "cpm/ml"}, {"measurement": "ATI dans les surnageants", "setting": "Bardac® 0,01 %, J6", "result": 222, "unit": "cpm/ml"}, {"measurement": "ATI dans les surnageants", "setting": "Bardac® 0,01 %, J10", "result": 1768, "unit": "cpm/ml"}, {"measurement": "ATI dans les surnageants", "setting": "Bardac® 0,01 %, J13", "result": 1592, "unit": "cpm/ml"}, {"measurement": "ATI dans les surnageants", "setting": "Bardac® 0,01 %, J17", "result": 190, "unit": "cpm/ml"}, {"measurement": "ATI dans les surnageants", "setting": "Bardac® 0,01 %, J20", "result": 390, "unit": "cpm/ml"}, {"measurement": "ATI dans les surnageants", "setting": "Bardac® 0,01 %, J23", "result": 1328, "unit": "cpm/ml"}, {"measurement": "ATI dans les surnageants", "setting": "Bardac® 0,01 %, J27", "result": 780, "unit": "cpm/ml"}, {"measurement": "ATI dans les surnageants", "setting": "Bardac® 0,01 %, J30", "result": 1000, "unit": "cpm/ml"}, {"measurement": "ATI dans les surnageants", "setting": "Bardac® 0,0004 %, J3", "result": 702, "unit": "cpm/ml"}, {"measurement": "ATI dans les surnageants", "setting": "Bardac® 0,0004 %, J6", "result": 18136, "unit": "cpm/ml"}, {"measurement": "ATI dans les surnageants", "setting": "Bardac® 0,0004 %, J10", "result": 117326, "unit": "cpm/ml"}, {"measurement": "ATI dans les surnageants", "setting": "Bardac® 0,0004 %, J13", "result": 74214, "unit": "cpm/ml"}, {"measurement": "ATI dans les surnageants", "setting": "Bardac® 0,0004 %, J17", "result": 50674, "unit": "cpm/ml"}, {"measurement": "ATI dans les surnageants", "setting": "Bardac® 0,0004 %, J20", "result": 22478, "unit": "cpm/ml"}, {"measurement": "ATI dans les surnageants", "setting": "Bardac® 0,0004 %, J23", "result": 13806, "unit": "cpm/ml"}, {"measurement": "ATI dans les surnageants", "setting": "Bardac® 0,0004 %, J27", "result": 7800, "unit": "cpm/ml"}, {"measurement": "ATI dans les surnageants", "setting": "Bardac® 0,0004 %, J30", "result": 4426, "unit": "cpm/ml"}, {"measurement": "ATI dans les surnageants", "setting": "Bardac® 0,002 %, J3", "result": 464, "unit": "cpm/ml"}, {"measurement": "ATI dans les surnageants", "setting": "Bardac® 0,002 %, J6", "result": 2472, "unit": "cpm/ml"}, {"measurement": "ATI dans les surnageants", "setting": "Bardac® 0,002 %, J10", "result": 16066, "unit": "cpm/ml"}, {"measurement": "ATI dans les surnageants", "setting": "Bardac® 0,002 %, J13", "result": 24902, "unit": "cpm/ml"}, {"measurement": "ATI dans les surnageants", "setting": "Bardac® 0,002 %, J17", "result": 77754, "unit": "cpm/ml"}, {"measurement": "ATI dans les surnageants", "setting": "Bardac® 0,002 %, J20", "result": 75554, "unit": "cpm/ml"}, {"measurement": "ATI dans les surnageants", "setting": "Bardac® 0,002 %, J23", "result": 101394, "unit": "cpm/ml"}, {"measurement": "ATI dans les surnageants", "setting": "Bardac® 0,002 %, J27", "result": 80560, "unit": "cpm/ml"}, {"measurement": "ATI dans les surnageants", "setting": "Bardac® 0,002 %, J30", "result": 64692, "unit": "cpm/ml"}, {"measurement": "ATI dans les surnageants", "setting": "Bardac® 0,004 %, J3", "result": 346, "unit": "cpm/ml"}, {"measurement": "ATI dans les surnageants", "setting": "Bardac® 0,004 %, J6", "result": 298, "unit": "cpm/ml"}, {"measurement": "ATI dans les surnageants", "setting": "Bardac® 0,004 %, J10", "result": 160, "unit": "cpm/ml"}, {"measurement": "ATI dans les surnageants", "setting": "Bardac® 0,004 %, J13", "result": 170, "unit": "cpm/ml"}, {"measurement": "ATI dans les surnageants", "setting": "Bardac® 0,004 %, J17", "result": 350, "unit": "cpm/ml"}, {"measurement": "ATI dans les surnageants", "setting": "Bardac® 0,004 %, J20", "result": 218, "unit": "cpm/ml"}, {"measurement": "ATI dans les surnageants", "setting": "Bardac® 0,004 %, J23", "result": 444, "unit": "cpm/ml"}, {"measurement": "ATI dans les surnageants", "setting": "Bardac® 0,004 %, J27", "result": 244, "unit": "cpm/ml"}, {"measurement": "ATI dans les surnageants", "setting": "Bardac® 0,004 %, J30", "result": 264, "unit": "cpm/ml"}, {"measurement": "ATI dans les surnageants", "setting": "Bardac® 0,006 %, J3", "result": 320, "unit": "cpm/ml"}, {"measurement": "ATI dans les surnageants", "setting": "Bardac® 0,006 %, J6", "result": 326, "unit": "cpm/ml"}, {"measurement": "ATI dans les surnageants", "setting": "Bardac® 0,006 %, J10", "result": 204, "unit": "cpm/ml"}, {"measurement": "ATI dans les surnageants", "setting": "Bardac® 0,006 %, J13", "result": 248, "unit": "cpm/ml"}, {"measurement": "ATI dans les surnageants", "setting": "Bardac® 0,006 %, J17", "result": 364, "unit": "cpm/ml"}, {"measurement": "ATI dans les surnageants", "setting": "Bardac® 0,006 %, J20", "result": 180, "unit": "cpm/ml"}, {"measurement": "ATI dans les surnageants", "setting": "Bardac® 0,006 %, J23", "result": 328, "unit": "cpm/ml"}, {"measurement": "ATI dans les surnageants", "setting": "Bardac® 0,006 %, J27", "result": 588, "unit": "cpm/ml"}, {"measurement": "ATI dans les surnageants", "setting": "Bardac® 0,006 %, J30", "result": 196, "unit": "cpm/ml"}, {"measurement": "action virucide", "result": "ne sont pas virucides"}]}]}
